Converted amounts (≈) assume the structure as drawn.
Legend:
[1] = test system: Pasteurella multocida (turkey); test: standard in vitro test against Pasteurella; type: cell-based
Source text: Another veterinary aspect of this invention is the activity of the A-40104 antibiotics against Pasteurella species. P. multocida, for example, is a causative agent of respiratory infection in cattle, poultry, and swine. P. hemolytica is a major cause of respiratory disease in cattle. The activity of A-40104 factor A and its dihydro derivative against Pasteurella, as determined by standard in vitro tests, is summarized in Table X.

Spiroplasma citri = test: in vitro test against Spiroplasma citri; type: cell-based; details: levels as low as, read-out: level inhibiting S. citri
Source text: Another important aspect of this invention is the activity of the A-40104 antibiotics against Spiroplasmas. Spiroplasma citri is the causative agent of citrus-stubborn disease; another Spiroplasma, corn-stunt Spiroplasma, affects the growth of corn. In in vitro tests against Spiroplasma citri A-40104 factor A and its dihydro derivative inhbit S. citri when applied at levels as low as 0.01 ppm.

Mycoplasma gallisepticum = test: in vitro broth-dilution MIC, mycoplasma; type: cell-based
Source text: (§1) The minimal inhibitory concentrations (MIC's) of A-40104 factor A; 19,20-dihydro-A-40104 factor A; and the tetraacetyl derivative of A-40104A against various mycoplasma species, as determined by in vitro broth-dilution studies, are summarized in Table IX.

Mycoplasma synoviae = test: in vitro broth-dilution MIC, mycoplasma; type: cell-based
Source text: as §1

powdery mildew [2] = test: control of powdery mildew on barley plants; type: in vivo; details: soil drench at 100 ppm
Source text: (§2) The A-40104 antibiotics are also active against plant pathogens. […] The systemic activity of these antibiotics is especially advantageous in the control of plant pathogens or Spiroplasmas.

Eubacterium aerofaciens = test: standard agar-dilution test, anaerobic bacteria; type: cell-based; details: Collinsella aerofaciens, read after 24 hours
Source text: Table VIII summarizes the activity of A-40104 factor A, as determined by the standard agar-dilution test.
*MIC determined by the agardilution method. Endpoints were read after 24

powdery mildew [3] = test: control of powdery mildew on bean plants; type: in vivo; details: soil drench at 100 ppm
Source text: as §2

swine dysentery = details: W. E. Brown et al. U.S. Pat. No. 4,041,175; cited from earlier work

MIC (Spiroplasma citri) | SMILES | MIC [1] | MIC (Mycoplasma gallisepticum) | MIC (Mycoplasma synoviae) | control of powdery mildew (powdery mildew [2]) | solubility in chloroform (solubility; chloroform) | solubility in alcohols (solubility; ethanol) | solubility in alcohols (solubility; methanol) | solubility in water (solubility; water) | MIC (Eubacterium aerofaciens) | control of powdery mildew (powdery mildew [3]) | effect in swine dysentery (swine dysentery)
≤ 0.01 µg/mL | CCC1(C)CC(OC(=O)CO[C@@H]2OC[C@@H](O)[C@H](O)[C@H]2O)C2(C)C(C)CCC3(CCC(=O)C32)C(C)C1O (stereo partly shown) [19,20-dihydro-A-40104 factor A, 19,20-Dihydro-A-40104 Factor A] | 12.5 µg/mL (≈ 24.4 µM) | – | – | – | – | – | – | – | – | – | –
– | C=CC1(C)CC(OC(=O)CO[C@@H]2OC[C@@H](O)[C@H](O)[C@H]2O)C2(C)C(C)CCC3(CCC(=O)C32)C(C)C1O (stereo partly drawn) [A-40104 factor A, β,D-xylopyranosyl acetal derivative of pleuromutilin] | 12.5 µg/mL (≈ 24.5 µM) | < 0.78 µg/mL | < 0.78 µg/mL | control of powdery mildew is obtained | partially soluble | soluble | soluble | insoluble | 16 µg/mL (≈ 31.3 µM) | control of powdery mildew is obtained | –
– | C=C[C@]1(C)C[C@@H](OC(=O)CO)[C@]2(C)[C@H](C)CC[C@]3(CCC(=O)[C@H]32)[C@@H](C)[C@@H]1O [A-40104 factor C, pleuromutilin] | – | – | – | – | – | – | – | – | – | – | effective in the treatment of swine dysentery

From patent publication US4247542A, “A-40104 Antibiotics and process for production thereof” (priority 1978, dated 1981)
